The record followed here is US9593144B2, “FPR1 antagonist derivatives and use thereof” (CHANG GUNG UNIVERSITY, priority 2014, dated 2017).

Data set [1] has as its system human neutrophils. As to the kind of experiment: cells. Type of data set: cell-based. The note with it: for IC50: mean ± SEM. On the procedure: Degranulation of azurophilic granules was determined by elastase release as described above. Experiments were performed using MeO-Suc-[…]-nitroanilide as the elastase substrate. […] Results are expressed as the percentage of elastase release in the drug-free control group, DMSO. Tables 5 and 6 explore whether there is an anti-inflamatory effect in the dipeptide derivatives. Because ferricytochrome c cannot penetrate cell membranes, it reacts with superoxide anion extracellularly. Also, there are absorptive reactions at 550 nm, and differences among the absorptive reactions can be used to evaluate the influence on the release of superoxide anion. The elastase is released by degranulation as the neutrophil is activated. Tables 5 and 6 use the substrate, MeO-Suc-[…]-nitroanilide, with the specificity for reacting with the elastase so as to evaluate the influence of the candidate compound on the elastase release. Blood was taken from healthy human donors (20-32 years old) by venipuncture, following a protocol approved by the Institutional Review Board at Chang Gung Memorial Hospital. Neutrophils were isolated by a standard method of dextran sedimentation prior to centrifugation in a Ficoll Hypaque gradient and the hypotonic lysis of erythrocytes. […] The degranulation of azurophilic granules was determined by elastase release as described above. Experiments were performed using MeO-Suc-[…]-nitroanilide as the elastase substrate. Briefly, after supplementation with MeO-Suc-[…]-nitroanilide ([…] neutrophils (6×10^5 ml^-1) were equilibrated at 37° C. for 2 min and incubated with drugs for 5 min. […] The results are expressed as the percentage of elastase release in the drug-free control group.

Data set [2] has as its system human neutrophils. As to the kind of experiment: cells. The note with it: for IC50: mean ± SEM. It counts as cell-based. The source says: Tables 5 and 6 explore whether there is an anti-inflamatory effect in the dipeptide derivatives. Because ferricytochrome c cannot penetrate cell membranes, it reacts with superoxide anion extracellularly. Also, there are absorptive reactions at 550 nm, and differences among the absorptive reactions can be used to evaluate the influence on the release of superoxide anion. The elastase is released by degranulation as the neutrophil is activated. Tables 5 and 6 use the substrate, MeO-Suc-Ala-Ala-Pro-Val-p-nitroanilide, with the specificity for reacting with the elastase so as to evaluate the influence of the candidate compound on the elastase release.
Blood was taken from healthy human donors (20-32 years old) by venipuncture, following a protocol approved by the Institutional Review Board at Chang Gung Memorial Hospital. Neutrophils were isolated by a standard method of dextran sedimentation prior to centrifugation in a Ficoll Hypaque gradient and the hypotonic lysis of erythrocytes.
The evaluation of O2.^− generation was based on the SOD-inhibitable reduction of ferricytochrome c. In brief, after supplementation with 0.5 mg ml^−1 ferricytochrome c and 1 mM Ca^2+, neutrophils were equilibrated at 37° C. for 2 min and incubated with drugs […].
This is another data set of the same source.

The mark [3] stands for this setting: fMLP/CB, n = 3, Table 3, read-out: Anti-inflammation NE release (IC50).
The mark [4] stands for this setting: human neutrophils, fMLP/CB, n = 3, Table 3, read-out: Anti-inflammation O2•− generation (IC50).
Where [5] appears, read: fMLP/CB, n = 3, Table 2, read-out: Anti-inflammation NE release (IC50).
Setting [6] is: human neutrophils, fMLP/CB, n = 3, Table 2, read-out: Anti-inflammation O2•− generation (IC50).
[7] abbreviates: fMLP/CB, n = 3, Table 1, read-out: Anti-inflammation NE release (IC50).
The mark [8] stands for this setting: human neutrophils, fMLP/CB, n = 3, Table 1, read-out: Anti-inflammation O2•− generation (IC50).
The mark [9] stands for this setting: Neutrophil, fMLP/CB, n = 3, Table 1, read-out: Anti-inflammation NE release (IC50).
Where [10] appears, read: Neutrophil, human neutrophils, fMLP/CB, n = 3, Table 1, read-out: Anti-inflammation O2•− generation (IC50).

Where two headings read alike, the source gives them in different places. Square brackets hold non-standard residues; d marks the D form. Peptide text beside a SMILES is read from it. * marks the point of attachment. dPhe(4-NO2) = N[C@H](Cc1ccc([N+](=O)[O-])cc1)C(=O)O; Trp(5-OH) = N[C@@H](Cc1c[nH]c2ccc(O)cc12)C(=O)O; dPhe(4-Cl) = N[C@H](Cc1ccc(Cl)cc1)C(=O)O; Nicotinoyl = O=C(c1cccnc1)*; PhAc = O=C(Cc1ccccc1)*; Bz = O=C(c1ccccc1)* Where only a bound is given, the exact number is not on record here.

As for `N#CCNC(=O)[C@@H](Cc1ccccc1)NC(=O)[C@H](Cc1c[nH]c2ccccc12)NC(=O)c1ccccc1` [Compound 27b, N—(N-benzoyl-L-tryptophanyl)-D-phenylalanine-glycine-nitriles], the IC50 with human neutrophils [1] (WKYMVm, n = 4 or 8, Table 6, read-out: Elastase release WKYMVm IC50) is 6.65 ± 0.23 µM; in the data set on human neutrophils [1] (setting [3]), 14.5 ± 2.87 µM; with human neutrophils [2] (setting [4]) it was 10.5 ± 4.23 µM. The “Elastase release fMLF Inh %” value in the data set on human neutrophils [1] (inhibitory percentage under 10 μM, Table 6, listed as HCH 90-2-1) was found to be 18.66 ± 0.7 %. The “Superoxide anion WKYMVm Inh %” value in the data set with human neutrophils [2] (inhibitory percentage under 10 μM, Table 5, listed as HCH 90-2-1) was determined as 18.66 ± 0.7 %. Further, the “Superoxide anion fMLF Inh %” value in the data set with human neutrophils [2] (human neutrophils, fMLF, inhibitory percentage under 10 μM, Table 5) turned out to be 34.61 ± 4.1 %.

In the case of `COC(=O)[C@@H](Cc1ccc([N+](=O)[O-])cc1)NC(=O)[C@H](Cc1c[nH]c2ccccc12)NC(=O)c1ccccc1` [Compound 18b, N—(N-Benzoyl-L-tryptophanyl)-para-nitro-D-phenylalanine methyl esters] (Bz-Trp-[dPhe(4-NO2)]-OMe), the IC50 with human neutrophils [1] (setting [5]) stood at 15.4 ± 0.54 µM; in the data set with human neutrophils [2] (setting [6]) it was 13.1 ± 0.4 µM.

Turning to `N#CCNC(=O)[C@@H](Cc1ccccc1)NC(=O)[C@H](Cc1c[nH]c2ccccc12)NC(=O)c1ccccc1` [Compound 27a, N—(N-benzoyl-L-tryptophanyl)-D-phenylalanine-glycine-nitriles], in the data set with human neutrophils [1] (WKYMVm, inhibitory percentage under 10 μM, Table 6), the “Elastase release WKYMVm Inh %” value came to 35.9 ± 0.8 %. Moreover, the “Elastase release fMLF Inh %” value in the data set with human neutrophils [1] (inhibitory percentage under 10 μM, Table 6, listed as HCH 90-2-2) came to 28.79 ± 2.6 %. Also, the IC50 came out at 4.69 ± 0.8 µM in the data set on human neutrophils [1] (setting [3]); 6.23 ± 1.05 µM in the data set on human neutrophils [2] (human neutrophils, fMLF, n = 4 or 8, Table 5, read-out: Superoxide anion fMLF IC50); 4.23 ± 2.44 µM with human neutrophils [2] (setting [4]). Further, in the data set with human neutrophils [2] (inhibitory percentage under 10 μM, Table 5, listed as HCH 90-2-2), the “Superoxide anion WKYMVm Inh %” value is reported as 28.79 ± 2.6 %.

As to `COC(=O)[C@@H](Cc1ccccc1)NC(=O)[C@H](Cc1c[nH]c2ccccc12)NC(=O)c1cccnc1` [Compound 15a, N—(N-nicotinoyl-L-tryptophanyl)-D-phenylalanine methyl esters] (Nicotinoyl-Trp-[dF]-OMe), the IC50 was over 30 µM in the data set with human neutrophils [1] (setting [7]) and 13.1 ± 0.5 µM in the data set on human neutrophils [2] (setting [8]).

Regarding `CC(C)(C)C(=O)Oc1ccc(S(=O)(=O)Nc2ccccc2C(=O)NCC(=O)O)cc1` [Sivelestat, reference compound], the IC50 in the data set on human neutrophils [1] (setting [9]) came to 0.046 ± 0.02 µM.

For orientation: melting point means the temperature of the solid-liquid transition. Regarding `O=C(N[C@@H](Cc1c[nH]c2ccccc12)C(=O)N[C@@H](CO)Cc1ccccc1)c1ccccc1` [Compound 13b, N—(N-Benzoyl-L-tryptophanyl)-D-phenylalaninol], the melting point was in the range of 120 to 122 °C. The IC50 with human neutrophils [1] (setting [3]) is over 30 µM. In the data set with human neutrophils [2] (setting [4]), the IC50 was over 30 µM.

Molecule `COC(=O)[C@@H](Cc1ccccc1)NC(=O)[C@H](Cc1c[nH]c2ccccc12)NC(=O)Cc1ccccc1` [Compound 8, N—(N-Phenylacetyl-L-tryptophanyl)-D-phenylalanine methyl ester] (PhAc-Trp-[dF]-OMe) yielded a melting point of 182 to 184 °C. Also, in the data set on human neutrophils [1] (setting [9]), the IC50 was found to be 5.71 ± 0.39 µM. The IC50 with human neutrophils [2] (setting [10]) amounted to 10.2 ± 4.53 µM.

`COC(=O)[C@@H](Cc1ccccc1)NC(=O)[C@H](Cc1c[nH]c2ccccc12)NC(=O)c1ccc(F)cc1` [Compound 4, N—(N-4-Fluorobenzoyl-L-tryptophanyl)-D-phenylalanine methyl ester] displayed a melting point of 191 to 193 °C. Also, the IC50 in the data set with human neutrophils [1] (setting [9]) was over 30 µM. Moreover, in the data set on human neutrophils [2] (setting [10]), the IC50 is over 30 µM.

Consider `C/C=C/C[C@@H](C)[C@@H](O)[C@H]1C(=O)N[C@@H](CC)C(=O)N(C)CC(=O)N(C)[C@@H](CC(C)C)C(=O)N[C@@H](C(C)C)C(=O)N(C)[C@@H](CC(C)C)C(=O)N[C@@H](C)C(=O)N[C@H](C)C(=O)N(C)[C@@H](CC(C)C)C(=O)N(C)[C@@H](CC(C)C)C(=O)N(C)[C@H](C(C)C)C(=O)N1C` [CycH, Cyclosporin H, reference compound], for which the IC50 in the data set with human neutrophils [1] (WKYMVm/CB, n = 3, Table 4, read-out: WKYMVm/CB NE release (IC50)) came to 0.17 ± 0.01 µM.

With `COC(=O)[C@@H](Cc1ccc([N+](=O)[O-])cc1)NC(=O)[C@H](Cc1c[nH]c2ccccc12)NC(=O)c1ccccc1` [Compound 18a, N—(N-Benzoyl-L-tryptophanyl)-para-nitro-D-phenylalanine methyl esters] (Bz-Trp-[dPhe(4-NO2)]-OMe), the IC50 with human neutrophils [1] (setting [5]) turned out to be 11.2 ± 0.46 µM; in the data set with human neutrophils [2] (setting [6]) it was 19 ± 2.7 µM.

Take `COC(=O)[C@@H](Cc1ccccc1)NC(=O)[C@H](Cc1c[nH]c2ccccc12)NC(=O)c1ccc(OC)cc1` [Compound 7, N—(N-4-Methoxylbenzoyl-L-tryptophanyl)-D-phenylalanine methyl ester]: the melting point was in the range of 151 to 153 °C. Besides, the IC50 in the data set on human neutrophils [1] (setting [9]) is over 30 µM. Further, in the data set on human neutrophils [2] (setting [10]), the IC50 is over 30 µM.

Turning to `O=C(N[C@@H](Cc1c[nH]c2ccccc12)C(=O)N[C@@H](CO)Cc1cccc(O)c1)c1ccccc1` [Compound 12a, N—(N-Benzoyl-L-tryptophanyl)-5-hydroxy-D-phenylalaninol], the IC50 in the data set on human neutrophils [1] (Neutrophil, fMLP/CB, n = 3, Table 3, read-out: Anti-inflammation NE release (IC50)) was over 30 µM; with human neutrophils [2] (Neutrophil, human neutrophils, fMLP/CB, n = 3, Table 3, read-out: Anti-inflammation O2•− generation (IC50)), over 30 µM.

Take `COC(=O)[C@@H](Cc1ccc(Cl)cc1)NC(=O)[C@H](Cc1c[nH]c2ccccc12)NC(=O)c1ccccc1` [Compound 21b, N—(N-Benzoyl-L-tryptophanyl)-para-chloro-D-phenylalanine methyl esters] (Bz-Trp-[dPhe(4-Cl)]-OMe): the IC50 in the data set with human neutrophils [1] (setting [5]) is 12.4 ± 3.53 µM; with human neutrophils [2] (setting [6]), 5.26 ± 0.84 µM.

Turning to `COC(=O)[C@@H](Cc1ccc(Cl)cc1)NC(=O)[C@H](Cc1c[nH]c2ccccc12)NC(=O)c1ccccc1` [Compound 21a, N—(N-Benzoyl-L-tryptophanyl)-para-chloro-D-phenylalanine methyl esters] (Bz-Trp-[dPhe(4-Cl)]-OMe), the IC50 in the data set with human neutrophils [1] (setting [5]) was determined as 4.31 ± 0.52 µM; with human neutrophils [2] (setting [6]) it was 4.41 ± 0.27 µM.

As to `COC(=O)[C@@H](Cc1ccccc1)NC(=O)[C@H](Cc1c[nH]c2ccc(O)cc12)NC(=O)c1ccccc1` [Compound 11a, N—(N-Benzoyl-5-hydroxy-L-tryptophanyl)-D-phenylalanine methyl esters] (Bz-[Trp(5-OH)]-[dF]-OMe), the IC50 is 9.11 ± 0.76 µM with human neutrophils [1] (setting [7]) and 8.81 ± 1.22 µM with human neutrophils [2] (setting [8]).

Turning to `COC(=O)[C@@H](Cc1ccccc1)NC(=O)[C@H](Cc1c[nH]c2ccccc12)NC(=O)c1cccnc1` [Compound 15b, N—(N-nicotinoyl-L-tryptophanyl)-D-phenylalanine methyl esters] (Nicotinoyl-Trp-[dF]-OMe), the IC50 with human neutrophils [1] (setting [7]) and with human neutrophils [2] (setting [8]) was over 30 µM each time.

Turning to `COC(=O)[C@@H](Cc1ccccc1)NC(=O)[C@H](Cc1c[nH]c2ccc(O)cc12)NC(=O)c1ccccc1` [Compound 11b, N—(N-Benzoyl-5-hydroxy-L-tryptophanyl)-D-phenylalanine methyl esters] (Bz-[Trp(5-OH)]-[dF]-OMe), the IC50 with human neutrophils [1] (setting [7]) stood at 22.1 ± 4.96 µM; with human neutrophils [2] (setting [8]), 18.7 ± 4.02 µM.
